Measured values from US11401271B2, “Fused heterocyclic compound, pyrazole-ring-containing fused heterocyclic compound, agricultural composition containing thereof, and method of using the composition” (SOUTH CHINA AGRICULTURAL UNIVERSITY, priority 2017, dated 2022).
Where two headings read alike, the source gives them in different places.

Experiments:
Experiment in all cases: whole plant or invertebrate
Type in all cases: in vivo
Plutella xylostella = settings: Plutella xylostella, read-out: Plutella xylostella Mortality (%) 500 ppm
Description: (1) Insecticidal Activity on 2nd-Instar Larvae of Plutella xylostella.
Plutella xylostella (L.) is a lepidoptera pest with a chewing mouthpart and is a common vegetable pest. The 2nd-instar larvae of Plutella xylostella were used as test objects and tested by using a leaf immersion feeding method.
(§1) Operation process: Samples were weighed accurately, and respectively added with 200 μL of dimethyl sulfoxide to prepare 10 g/L mother liquor which was diluted into a concentration of 500 ppm with an aqueous solution containing 0.05% of Tween-80 during the test. A hole puncher with a diameter of 1.0 cm was used to make cleaned cabbage leaves into leaf discs. The leaf discs were immersed in a liquid medicine, taken out after 5 seconds, air-dried naturally, and transferred into a clean vessel. About 35 2nd-instar larvae of Plutella xylostella were put into the vessel and fed at a constant temperature of 28° C. Each concentration was repeated 3 times, and an aqueous solution containing 0.05% of Tween-80 was used as a control group. After being treated for 24 hours, a number of dead Plutella xylostella was counted, and a mortality (%) was calculated according to a formula that mortality (%)=(number of live larvae in the control group−number of treated live larvae)/number of live larvae in the control group*100%.

Spodoptera exigua = settings: Spodoptera exigua, read-out: Spodoptera exigua Mortality (%) 500 ppm
Description: (2) Insecticidal Activity on 2nd-Instar Larvae of Spodoptera exigua.
Spodoptera exigua is a lepidoptera pest with a chewing mouthpart and is a common vegetable pest. The 2nd-instar larvae of Spodoptera exigua were used as test objects and tested by using a leaf immersion feeding method.
as §1, with “μL,” for “μL”, “2nd -instar” for “2nd-instar”, “Spodoptera exigua” for “Plutella xylostella”, “group −number” for “group−number”, “group * 100%.” for “group*100%.”

Aphis craccivora = settings: Aphis craccivora, read-out: Aphis craccivora Mortality (%) 500 ppm
Description: (3) Insecticidal Activity on Aphid Adults.
Aphid is a homoptera pest with a piercing-sucking mouthpart and is a common vegetable pest. Aphis craccivora were taken as test objects and tested by using an impregnation method.
Operation process: Samples were weighed accurately, and respectively added with 200 μL of dimethyl sulfoxide to prepare 10 g/L mother liquor which was diluted into a concentration of 500 ppm with an aqueous solution containing 0.05% of Tween-80 during the test. After the wingless Aphis craccivora adults stably sucked on bean sprouts, the wingless Aphis craccivora adults together with the bean sprouts were immersed into a liquid medicine with a concentration of 500 ppm, taken out after 5 seconds, air-dried naturally, transferred into a clean vessel, and fed at a constant temperature of 23° C. Each concentration was repeated 3 times, and an aqueous solution containing 0.05% of Tween-80 was used as a control group. After being treated for 24 hours, a number of dead Aphis craccivora was counted, and a mortality (%) was calculated according to a formula that mortality (%)=(number of live Aphis craccivora in the control group−number of treated live Aphis craccivora)/number of live Aphis craccivora in the control group*100%.

Solenopsis invicta = settings: Solenopsis invicta, water test tube poison-feeding
Description: (4) Insecticidal Activity on Solenopsis invicta.
As a hymenoptera pests and a social insect, Solenopsis invicta is one of the most destructive invasive organisms. Solenopsis invicta were used as test objects and tested by using a water test tube poison-feeding method.
Operation process: Samples were weighed accurately, and respectively added with 200 μL of dimethyl sulfoxide to prepare 10 g/L mother liquor which was diluted into a concentration of 100 ppm with a mixed aqueous solution containing 0.05% of Tween-80 and 5% of honey during the test. […] The raising test tube was placed in a raising box horizontally, and a small amount of ham sausages were added to the raising test tube as food to raise the Solenopsis invicta at a constant temperature of 25° C. After being treated for 24 hours and 72 hours, a number of live Solenopsis invicta and a number of dead Solenopsis invicta were counted, and a mortality (%) was calculated according to a formula that mortality (%)=(number of live Solenopsis invicta in the control group−number of treated live Solenopsis invicta)/number of live Solenopsis invicta in the control group*100%.

[1] = 24 h, read-out: Solenopsis invicta Mortality (%) 100 ppm 24 h, 100 ppm, 24 h
[2] = 72 h, read-out: Solenopsis invicta Mortality (%) 100 ppm 72 h, 100 ppm, 72 h

| SMILES | mortality at 500 ppm (Plutella xylostella; 500 ppm, 2nd-instar larvae, leaf immersion feeding) | mortality at 500 ppm (Spodoptera exigua; 500 ppm, 2nd-instar larvae, leaf immersion feeding, 24 hours) | mortality at 500 ppm (Aphis craccivora; 500 ppm, wingless adults, impregnation method, 24 hours) | mortality at 100 ppm (Solenopsis invicta; 24 h, 100 ppm, 24 h, read-out: Solenopsis invicta Mortality (%) 100 ppm 24 h) | mortality at 100 ppm (Solenopsis invicta; 72 h, 100 ppm, 72 h, read-out: Solenopsis invicta Mortality (%) 100 ppm 72 h) | mortality at 500 ppm (Plutella xylostella) | mortality at 500 ppm (Spodoptera exigua; 24 h) | mortality at 500 ppm (Aphis craccivora; 24 h) | mortality at 100 ppm (Solenopsis invicta; [1]) | mortality at 100 ppm (Solenopsis invicta; [2]) |
| --- | --- | --- | --- | --- | --- | --- | --- | --- | --- | --- |
| COC(=O)Nc1cc2n(n1)-c1cnccc1C(F)(CC(F)(F)F)N2 (stereo not shown) [Compound A40] | 96% | 100% | 100% | 20% | 97% |  |  |  |  |  |
| CNC(=O)Nc1cc2n(n1)-c1cnccc1C(F)(CC(F)(F)F)N2 (stereo not shown) [Compound A41] |  |  |  |  |  | 100% | 100% | 100% | 24% | 100% |
| CS(=O)(=O)Nc1cc2n(n1)-c1cnccc1C(F)(CC(F)(F)F)N2 (stereo not shown) [Compound A42] |  |  |  |  |  | 100% | 100% | 100% | 44% | 100% |
| C=CC1(CCl)Nc2c(Br)c(C#N)nn2-c2c(Cl)cc(C(F)(F)F)cc21 (stereo not shown) [Compound C5] |  |  |  |  |  | 100% | 100% | 100% | 34% | 100% |
| C=CC1(CC(F)(F)F)Nc2c(Br)c(C#N)nn2-c2c(Cl)cc(C(F)(F)F)cc21 (stereo not shown) [Compound C6] |  |  |  |  |  | 100% | 100% | 100% | 44% | 100% |
| C=CC1(C(F)(F)F)Nc2c(Br)c(C#N)nn2-c2c(Cl)cc(C(F)(F)F)cc21 (stereo not shown) [Compound C7] |  |  |  |  |  | 100% | 100% | 100% | 38% | 100% |
| C=CC1Nc2c(Br)c(C#N)nn2-c2c(Cl)cc(C(F)(F)F)cc21 (stereo not shown) [Compound C8] |  |  |  |  |  | 91% | 85% | 95% | 36% | 92% |
| C=CC1(C(F)(F)F)Nc2c(-c3ccccc3C(F)(F)F)c(C#N)nn2-c2c(Cl)cc(C(F)(F)F)cc21 (stereo not shown) [Compound C11] |  |  |  |  |  | 100% | 100% | 100% | 46% | 100% |
| C=CC1(C(F)(F)F)Nc2c(-c3cc(C)oc3C)c(C#N)nn2-c2c(Cl)cc(C(F)(F)F)cc21 (stereo not shown) [Compound C12] |  |  |  |  |  | 100% | 91% | 100% | 18% | 95% |
| C=CC1Nc2c([S+]([O-])C(F)(F)F)c(C#N)nn2-c2c(Cl)cc(C(F)(F)F)cc21 (stereo not shown) [Compound C16] |  |  |  |  |  | 100% | 95% | 99% | 23% | 89% |
| C=CC1(CCl)Nc2c([S+]([O-])CC)c(C#N)nn2-c2c(Cl)cc(C(F)(F)F)cc21 (stereo not shown) [Compound C17] |  |  |  |  |  | 88% | 89% | 100% | 15% | 68% |
| C=CC1(CCl)Nc2c([S+](C)[O-])c(C(C)=O)nn2-c2c(Cl)cc(C(F)(F)F)cc21 (stereo not shown) [Compound C19] |  |  |  |  |  | 90% | 90% | 100% | 18% | 70% |
| C=CC1(CC#N)Nc2c([S+]([O-])CC)c(C#N)nn2-c2c(Cl)cc(C(F)(F)F)cc21 (stereo not shown) [Compound C21] |  |  |  |  |  | 90% | 95% | 100% | 19% | 99% |
| C=CC1(CC#N)Nc2c([S+](C)[O-])c(C#N)nn2-c2c(Cl)cc(C(F)(F)F)cc21 (stereo not shown) [Compound C22] |  |  |  |  |  | 99% | 94% | 89% | 20% | 70% |
| C=CC1(CC#N)Nc2c([S+](C)[O-])c(C(C)=O)nn2-c2c(Cl)cc(C(F)(F)F)cc21 (stereo not shown) [Compound C23] |  |  |  |  |  | 86% | 88% | 95% | 18% | 80% |
| CC(=O)c1nn2c(c1[S+](C)[O-])NC(CO)(CC#N)c1cc(C(F)(F)F)cc(Cl)c1-2 (stereo not shown) [Compound C27] |  |  |  |  |  | 76% | 86% | 100% | 27% | 86% |
| N#CCC1(CBr)Nc2c([S+]([O-])C(F)(F)F)c(C#N)nn2-c2c(Cl)cc(C(F)(F)F)cc21 (stereo not shown) [Compound C28] |  |  |  |  |  | 100% | 100% | 100% | 30% | 98% |
| CNC(=O)C1(CC#N)Nc2c([S+]([O-])C(F)(F)F)c(C#N)nn2-c2c(Cl)cc(C(F)(F)F)cc21 (stereo not shown) [Compound C33] |  |  |  |  |  | 100% | 100% | 100% | 36% | 100% |
| CN1CCN(C(=O)C2(CC#N)Nc3c([S+]([O-])C(F)(F)F)c(C#N)nn3-c3c(Cl)cc(C(F)(F)F)cc32)CC1 (stereo not shown) [Compound C34] |  |  |  |  |  | 100% | 100% | 100% | 40% | 100% |
| COC(=O)CC1(C(=O)OC)c2cc(C(F)(F)F)cc(Cl)c2-n2nc(C#N)c([S+]([O-])C(F)(F)F)c2N1C (stereo not shown) [Compound C39] |  |  |  |  |  | 90% | 100% | 98% | 24% | 87% |
| CC(=O)c1nn2c(c1[S+](C)[O-])NC(CBr)(CC#N)c1cc(C(F)(F)F)cc(Cl)c1-2 (stereo not shown) [Compound C41] |  |  |  |  |  | 89% | 94% | 100% | 19% | 90% |
| CNCC1(CC#N)Nc2c([S+](C)[O-])c(C(C)=O)nn2-c2c(Cl)cc(C(F)(F)F)cc21 (stereo not shown) [Compound C42] |  |  |  |  |  | 91% | 94% | 100% | 20% | 70% |
| COC(=O)C1(CC#N)Nc2c([S+](C)[O-])c(C(C)=O)nn2-c2c(Cl)cc(C(F)(F)F)cc21 (stereo not shown) [Compound C44] |  |  |  |  |  | 90% | 100% | 100% | 36% | 90% |
